Assay results from ChEMBL document CHEMBL2440066, “Acidic biphenyl derivatives: synthesis and biological activity of a new series of potent 5-HT(4) receptor antagonists” (Bioorg Med Chem, 2013).

Test system: not listed separately
Assay: Apparent permeability of the compound in human Caco2 cells at 1 uM
Type: ADME, cell-based
Conditions: Caco-2

In the case of CC(C)NCC(O)c1ccc(NS(C)(=O)=O)cc1 (stereo not given) [SOTALOL], the Papp at 1 µM is reported as 0.8 ×10⁻⁶ cm/s.

Biological target: 5-hydroxytryptamine receptor 4 (Rattus norvegicus) (UniProt Q62758)
Assay: Antagonist activity at 5-HT4 receptor in rat carbachol-contracted esophagus muscularis mucosae assessed as inhibition of 5-HT-induced relaxation
Conditions: not given

Chain of 5-hydroxytryptamine receptor 4 (Rattus norvegicus) (Q62758 whole entry): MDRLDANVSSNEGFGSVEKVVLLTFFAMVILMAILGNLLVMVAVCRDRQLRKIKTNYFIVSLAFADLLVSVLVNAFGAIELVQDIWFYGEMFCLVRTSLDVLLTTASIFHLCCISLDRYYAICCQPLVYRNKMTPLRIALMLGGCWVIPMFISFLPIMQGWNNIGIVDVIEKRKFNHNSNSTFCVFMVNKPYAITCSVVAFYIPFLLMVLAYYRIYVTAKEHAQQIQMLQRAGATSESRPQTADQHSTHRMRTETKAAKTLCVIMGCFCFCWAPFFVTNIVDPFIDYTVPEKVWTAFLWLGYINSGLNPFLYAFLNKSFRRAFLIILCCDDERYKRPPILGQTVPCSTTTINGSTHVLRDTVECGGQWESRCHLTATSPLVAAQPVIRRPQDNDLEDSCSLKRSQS

Going from Nc1c(Cl)cc(C(=O)CCC2CCN(CCCc3ccccc3)CC2)c2c1OCCO2 to COc1ccc(CCCN2CCC(CCC(=O)c3cc(Cl)c(N)c4c3OCCO4)CC2)cc1, the pKb rises from 9.6 to 10.6.

CS(=O)(=O)NCCN1CCC(CCC(=O)c2cc(Cl)c(N)c3c2OCCO3)CC1 and CCCCN1CCC(CCC(=O)c2cc(Cl)c(N)c3c2OCCO3)CC1 are the same in pKb: 9.9 for the first, 9.9 for the second.

Biological target: 5-hydroxytryptamine receptor 4 (Cavia porcellus, UniProt O70528)
Assay: Displacement of [125I]SB207710 from 5-HT4 receptor in guinea pig brain membranes
Type: cell membranes, Membrane
Conditions: not given

Chain of 5-hydroxytryptamine receptor 4 (Cavia porcellus, UniProt O70528) (O70528 whole entry): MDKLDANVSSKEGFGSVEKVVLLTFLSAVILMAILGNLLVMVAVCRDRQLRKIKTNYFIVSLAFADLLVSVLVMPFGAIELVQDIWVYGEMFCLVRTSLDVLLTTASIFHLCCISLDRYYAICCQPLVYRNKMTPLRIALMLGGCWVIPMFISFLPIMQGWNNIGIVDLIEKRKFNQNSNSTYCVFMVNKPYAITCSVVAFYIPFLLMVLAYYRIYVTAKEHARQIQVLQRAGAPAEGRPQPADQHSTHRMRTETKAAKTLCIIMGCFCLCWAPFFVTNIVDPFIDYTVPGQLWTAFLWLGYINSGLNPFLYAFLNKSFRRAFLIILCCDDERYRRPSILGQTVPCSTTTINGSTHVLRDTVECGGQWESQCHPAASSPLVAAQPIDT

First: CCCCN1CCC(CNC(=O)c2c3n(c4ccccc24)CCCO3)CC1 [PIBOSEROD]
Second: CC(O)CCN1CCC(CNC(=O)c2c3n(c4ccccc24)CCCO3)CC1 (stereo not given)
The Ki of the first is 2-fold higher: 1.58 nM for the first, 0.794 nM for the second.

First: O=C(NCC1CCNCC1)c1c2n(c3ccccc13)CCCO2
Second: CCCCN1CCC(CNC(=O)c2c3n(c4cc(O)ccc24)CCCO3)CC1
The Ki of the first is 13-fold lower: 63.1 nM for the first, 794 nM for the second.

Test system: 3T3-L1
Assay: Cytotoxicity against mouse 3T3L1 cells assessed as cell death at 5 ug/ml after 72 hrs by neutral red assay
Type: cell-based
Conditions: 3t3-l1, 72 h

Work on O=C(NCC1CCN(Cc2ccc(-c3ccccc3-c3nnn[nH]3)cc2)CC1)c1c2n(c3ccccc13)CCCO2 yielded an Activity of 0%.

Biological target: T1, Type-1 angiotensin II receptor (Homo sapiens, UniProt P30556)
T1 sequence (P30556 whole entry): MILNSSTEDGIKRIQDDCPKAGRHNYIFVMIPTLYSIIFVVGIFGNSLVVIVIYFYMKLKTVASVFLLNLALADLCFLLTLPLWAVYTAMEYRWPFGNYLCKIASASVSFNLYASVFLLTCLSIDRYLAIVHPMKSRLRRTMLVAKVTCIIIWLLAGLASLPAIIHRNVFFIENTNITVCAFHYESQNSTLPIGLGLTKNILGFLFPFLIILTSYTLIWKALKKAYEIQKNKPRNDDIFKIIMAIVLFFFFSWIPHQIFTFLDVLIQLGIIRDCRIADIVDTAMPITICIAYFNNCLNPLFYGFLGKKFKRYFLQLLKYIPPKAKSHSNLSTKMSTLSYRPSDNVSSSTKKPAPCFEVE
Assay: Displacement of [tyrosyl-3,5-3H]angiotensin-2 from AT1 receptor (unknown origin) expressed in QBI-HEK293A cells after 2 hrs
Type: cell-based, HEK293-A
Conditions: not given

O=C(O)c1ccccc1-c1ccc(CN2CCC(CNC(=O)c3c4n(c5ccccc35)CCCO4)CC2)cc1 and COC(=O)c1ccccc1-c1ccc(CN2CCC(CNC(=O)c3c4n(c5ccccc35)CCCO4)CC2)cc1 cannot be ordered by Ki: over 10000 nM for the first, over 10000 nM for the second.

CCCCN1CCC(CNC(=O)c2c3n(c4ccccc24)CCCO3)CC1 [PIBOSEROD] and O=C(NCC1CCN(Cc2ccc(-c3ccccc3-c3nnn[nH]3)cc2)CC1)c1c2n(c3ccccc13)CCCO2 cannot be ordered by Ki: over 10000 nM for the first, over 10000 nM for the second.

Biological target: T2, 5-hydroxytryptamine receptor 4 (Homo sapiens, UniProt Q13639)
Assay: Antagonist activity at human 5HT4B receptor expressed in HEK293 cells assessed as inhibition of 5HT-stimulated adenylyl cyclase activity
Type: functional, cell-based
Conditions: not given

T2 sequence (Q13639 whole entry): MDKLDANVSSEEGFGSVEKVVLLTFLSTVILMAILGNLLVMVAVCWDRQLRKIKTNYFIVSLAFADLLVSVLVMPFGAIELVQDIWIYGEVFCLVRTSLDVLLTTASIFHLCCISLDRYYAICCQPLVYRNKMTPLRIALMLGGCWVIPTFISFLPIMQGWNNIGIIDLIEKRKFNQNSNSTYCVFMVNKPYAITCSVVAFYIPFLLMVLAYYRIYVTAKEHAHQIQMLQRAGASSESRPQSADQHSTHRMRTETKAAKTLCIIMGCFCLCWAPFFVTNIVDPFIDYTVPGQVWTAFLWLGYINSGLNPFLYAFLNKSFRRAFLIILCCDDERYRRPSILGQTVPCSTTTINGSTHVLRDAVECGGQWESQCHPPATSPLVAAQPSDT

First: CCCCN1CCC(CNC(=O)c2c3n(c4ccccc24)CCCO3)CC1 [PIBOSEROD]
Second: O=C(NCC1CCN(Cc2ccc(-c3ccccc3-c3nnn[nH]3)cc2)CC1)c1c2n(c3ccccc13)CCCO2
The pKb of the first is lower: 9.5 for the first, 9.7 for the second.

Going from O=C(OCC1CCN(Cc2ccc(-c3ccccc3-c3nnn[nH]3)cc2)CC1)c1c2n(c3ccccc13)CCCO2 to Cn1cc(C(=O)OCC2CCN(CCNS(C)(=O)=O)CC2)c2ccccc21, the pKb falls from 10.6 to 8.7.

Biological target: T2, 5-hydroxytryptamine receptor 4
Assay: Displacement of [125I]SB207710 from human recombinant 5-HT4 receptor
Conditions: not given

First: CCCCN1CCC(CNC(=O)c2c3n(c4ccccc24)CCCO3)CC1 [PIBOSEROD]
Second: CC(O)CCN1CCC(CNC(=O)c2c3n(c4ccccc24)CCCO3)CC1 (stereo not given)
The Ki of the first is 2-fold higher: 1.58 nM for the first, 0.794 nM for the second. The second binds more tightly here.

Going from O=C(NCC1CCNCC1)c1c2n(c3ccccc13)CCCO2 to CCCCN1CCC(CNC(=O)c2c3n(c4cc(O)ccc24)CCCO3)CC1, the Ki rises from 63.1 nM to 794 nM (13-fold). The first binds more tightly here.

Biological target: T2, 5-hydroxytryptamine receptor 4
Assay: Displacement of [3H]GR113808 from human 5HT4B receptor expressed in HEK293 cells
Type: cell-based
Conditions: not given

First: O=C(O)c1ccccc1-c1ccc(CN2CCC(CNC(=O)c3c4n(c5ccccc35)CCCO4)CC2)cc1
Second: COC(=O)c1ccccc1-c1ccc(CN2CCC(CNC(=O)c3c4n(c5ccccc35)CCCO4)CC2)cc1
The Ki of the first is 10-fold higher: 0.631 nM for the first, 0.0631 nM for the second.

For O=C(NCC1CCN(Cc2ccc(-c3ccccc3-c3nnn[nH]3)cc2)CC1)c1c2n(c3ccccc13)CCCO2, the Ki was 3.98 nM.
